For the experiment, the target named is T1, F508del (Homo sapiens, UniProt P13569, DEL508-508).
T1 construct: expressed in transfected cells
Nature of the experiment: Protocol 2: FRET membrane potential optical assay (VIPR), identification of correction compounds. It counts as cell-based. The procedure, abridged: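 FRET read-out (CC2-DMPE donor, DiSBAC2(3) voltage-sensitive acceptor) of membrane depolarization on VIPR II. Corrector candidates incubated 16 hrs at 37° C. with NIH3T3 cells expressing F508del; temperature correction at 27° C. as positive control; stimulation by 10 μM forskolin, 20 μM genistein, chloride-free gluconate bath.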

Where [1] appears, read: Table 3, compounds of Table 1 as modulators of CFTR activity, protocol not stated.
Where [2] appears, read: F508del CFTR modulator activity, compounds of Table 1, read-out: EC30.

The structures appear in SMILES notation. Read-outs that look alike come from different tables or passages of the source.

T1 sequence (P13569 with tags, fused parts or gaps DEL508-508): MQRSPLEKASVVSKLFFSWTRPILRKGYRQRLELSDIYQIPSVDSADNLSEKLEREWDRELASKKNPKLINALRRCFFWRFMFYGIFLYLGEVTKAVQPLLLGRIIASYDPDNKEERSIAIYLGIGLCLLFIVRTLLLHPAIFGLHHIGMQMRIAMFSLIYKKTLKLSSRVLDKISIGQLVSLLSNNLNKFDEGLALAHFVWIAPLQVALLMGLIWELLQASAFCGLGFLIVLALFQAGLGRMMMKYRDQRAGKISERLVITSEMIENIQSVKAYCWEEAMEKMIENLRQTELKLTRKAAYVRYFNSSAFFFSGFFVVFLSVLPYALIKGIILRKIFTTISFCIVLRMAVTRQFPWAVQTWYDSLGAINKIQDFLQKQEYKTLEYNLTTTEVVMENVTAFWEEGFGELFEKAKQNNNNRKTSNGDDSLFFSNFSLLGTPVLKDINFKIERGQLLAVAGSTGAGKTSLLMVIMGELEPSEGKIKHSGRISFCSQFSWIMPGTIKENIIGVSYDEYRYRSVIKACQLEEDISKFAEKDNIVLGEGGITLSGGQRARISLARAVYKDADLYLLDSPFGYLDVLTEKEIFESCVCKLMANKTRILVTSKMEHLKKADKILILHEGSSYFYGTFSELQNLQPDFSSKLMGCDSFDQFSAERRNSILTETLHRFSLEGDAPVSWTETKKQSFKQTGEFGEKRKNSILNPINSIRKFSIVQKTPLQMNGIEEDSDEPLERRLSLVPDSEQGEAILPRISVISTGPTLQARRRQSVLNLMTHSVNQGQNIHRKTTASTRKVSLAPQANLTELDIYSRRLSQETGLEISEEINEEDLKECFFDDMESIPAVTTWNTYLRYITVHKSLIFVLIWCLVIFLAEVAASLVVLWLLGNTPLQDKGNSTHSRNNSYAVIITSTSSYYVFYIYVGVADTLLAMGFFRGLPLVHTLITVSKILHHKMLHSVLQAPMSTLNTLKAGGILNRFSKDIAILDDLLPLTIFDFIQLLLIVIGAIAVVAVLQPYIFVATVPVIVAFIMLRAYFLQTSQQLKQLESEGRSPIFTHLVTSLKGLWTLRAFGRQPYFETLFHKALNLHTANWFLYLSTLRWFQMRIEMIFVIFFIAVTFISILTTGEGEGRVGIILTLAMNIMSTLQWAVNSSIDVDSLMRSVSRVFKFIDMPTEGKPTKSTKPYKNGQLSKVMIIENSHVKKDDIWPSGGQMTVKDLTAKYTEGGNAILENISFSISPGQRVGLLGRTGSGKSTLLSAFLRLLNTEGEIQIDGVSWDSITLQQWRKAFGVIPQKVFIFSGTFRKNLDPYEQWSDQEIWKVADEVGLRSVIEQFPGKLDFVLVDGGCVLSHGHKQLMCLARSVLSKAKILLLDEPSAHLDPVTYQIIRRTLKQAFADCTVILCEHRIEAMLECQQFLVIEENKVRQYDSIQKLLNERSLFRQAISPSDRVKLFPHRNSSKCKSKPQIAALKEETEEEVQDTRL

In general, EC30 refers to the concentration at which the effect reaches the 30% level. With `Cc1cc(C)c(Oc2nc(-c3ccc(C)c(C)c3)ccc2C(=O)NS(=O)(=O)c2cccc(N)n2)c(C)c1` [Compound 399, N-[(6-amino-2-pyridyl)sulfonyl]-6-(3,4-dimethylphenyl)-2-(2,4,6-trimethylphenoxy)pyridine-3-carboxamide], the EC30 result under setting [1] is “+++ (“+++” means <3 uM)”.

In the case of `CCOc1ccc(-c2ccc(C(=O)NS(=O)(=O)c3cccnc3N)c(N3C[C@@H](C)CC3(C)C)n2)cc1F` [Compound 2403, N-[(2-amino-3-pyridyl)sulfonyl]-6-(4-ethoxy-3-fluoro-phenyl)-2-[(4S)-2,2,4-trimethylpyrrolidin-1-yl]pyridine-3-carboxamide], the 30% effect concentration (EC30) under setting [2] was < 3000 nM. With `CC1CN(c2ncccc2C(=O)NS(=O)(=O)c2cccc(Oc3ccccc3N3CCCCC3)n2)C(C)(C)C1` (centres unmarked) [Compound 2738], under setting [2], the concentration for an effect of 30% (EC30) was < 3000 nM. For the compound `COc1ncc(-c2ccc(C(=O)NS(=O)(=O)c3cccnc3N)c(N3C[C@@H](C)CC3(C)C)n2)c(OC)n1` [Compound 2008, N-[(2-amino-3-pyridyl)sulfonyl]-6-(2,4-dimethoxypyrimidin-5-yl)-2-[(4S)-2,2,4-trimethylpyrrolidin-1-yl]pyridine-3-carboxamide], under setting [2], the EC30 fell in the range of 3000 to 10000 nM. Same read-out and setting: with `C[C@@H]1CN(c2nc(-n3ccc(OCC(C)(C)C)n3)ccc2C(=O)NS(=O)(=O)c2ccc[nH]c2=O)C(C)(C)C1` [Compound 2578, 6-[3-(2,2-dimethylpropoxy)pyrazol-1-yl]-N-[(2-oxo-1H-pyridin-3-yl)sulfonyl]-2-[(4S)-2,2,4-trimethylpyrrolidin-1-yl]pyridine-3-carboxamide] the figure was < 3000 nM; with `Cc1cccc(CNc2cccc(S(=O)(=O)NC(=O)c3cccnc3N3CC(C)CC3(C)C)n2)c1` (centres unmarked) [Compound 2391, N—[[6-(m-tolylmethylamino)-2-pyridyl]sulfonyl]-2-(2,2,4-trimethylpyrrolidin-1-yl)pyridine-3-carboxamide], < 3000 nM. Consider `CC(C)COc1cc(F)cc(-c2ccc(C(=O)NS(=O)(=O)c3ccc[nH]c3=O)c(N3CCC[C@@H](c4ccccc4)C3)n2)c1` [Compound 481, 6-(3-fluoro-5-isobutoxy-phenyl)-N-[(2-oxo-1H-pyridin-3-yl)sulfonyl]-2-[(3S)-3-phenyl-1-piperidyl]pyridine-3-carboxamide], for which, under setting [1], the concentration for an effect of 30% (EC30) result was “+++ (“+++” means <3 uM)”.

Turning to `Cc1cc(C)c(Oc2nc(C(C)(C)C)ccc2C(=O)NS(=O)(=O)c2ccn[nH]2)c(C)c1` [Compound 214, 6-tert-butyl-N-(1H-pyrazol-5-ylsulfonyl)-2-(2,4,6-trimethylphenoxy)pyridine-3-carboxamide], the EC30 entry under setting [1] was “+++ (“+++” means <3 uM)”. On to `COc1ccc(-c2ccc(C(=O)NS(=O)(=O)c3ccc[nH]c3=O)c(N3C[C@@H](C)CC3(C)C)n2)cc1C` [Compound 2369, 6-(4-methoxy-3-methyl-phenyl)-N-[(2-oxo-1H-pyridin-3-yl)sulfonyl]-2-[(4S)-2,2,4-trimethylpyrrolidin-1-yl]pyridine-3-carboxamide], for which the EC30 under setting [2] was < 3000 nM. Still for that read-out and setting: with `C[C@@H]1CN(c2nc(C3=CCCN(C(=O)Cc4ccccc4)C3)ccc2C(=O)NS(=O)(=O)c2cccc(NC(=O)Cc3ccccc3)n2)C(C)(C)C1` [Compound 2243, N—[[6-[(2-phenylacetyl)amino]-2-pyridyl]sulfonyl]-6-[1-(2-phenylacetyl)-3,6-dihydro-2H-pyridin-5-yl]-2-[(4S)-2,2,4-trimethylpyrrolidin-1-yl]pyridine-3-carboxamide] the figure was < 3000 nM. On to `Cc1cc(C)c(Oc2nc(-c3ccc(F)cc3F)ccc2C(=O)NS(=O)(=O)c2cccc(N)n2)c(C)c1` [Compound 439, N-[(6-amino-2-pyridyl)sulfonyl]-6-(2,4-difluorophenyl)-2-(2,4,6-trimethylphenoxy)pyridine-3-carboxamide], for which the 30% effect concentration (EC30) result under setting [1] is on record as “+++ (“+++” means <3 uM)”. The same measure, in the same setting: then `CC(C)COc1ccc(-c2ccc(C(=O)NS(=O)(=O)c3cccc(N)n3)c(N3CC(C)CC3(C)C)n2)cn1` (centres unmarked) [Compound 471, N-[(6-amino-2-pyridyl)sulfonyl]-6-(6-isobutoxy-3-pyridyl)-2-(2,2,4-trimethylpyrrolidin-1-yl)pyridine-3-carboxamide], with “+++ (“+++” means <3 uM)”. Consider `C[C@@H]1CN(c2nc(-c3ccc(OC(F)(F)F)cc3)ccc2C(=O)NS(=O)(=O)c2ccc[nH]c2=O)C(C)(C)C1` [Compound 2234, N-[(2-oxo-1H-pyridin-3-yl)sulfonyl]-6-[4-(trifluoromethoxy)phenyl]-2-[(4S)-2,2,4-trimethylpyrrolidin-1-yl]pyridine-3-carboxamide], for which, under setting [2], the EC30 is < 3000 nM.

`CC(C)COc1cccc(-c2cnc(N3CC(C)CC3(C)C)c(C(=O)NS(=O)(=O)c3cccc(N)n3)c2)c1` (centres unmarked) [Compound 2089, N-[(6-amino-2-pyridyl)sulfonyl]-5-(3-isobutoxyphenyl)-2-(2,2,4-trimethylpyrrolidin-1-yl)pyridine-3-carboxamide]: the 30% effect concentration (EC30) under setting [2] is < 3000 nM.

For `CC1CN(c2ncccc2C(=O)NS(=O)(=O)c2cccc(Oc3ccccc3)n2)C(C)(C)C1` (centres unmarked) [Compound 2509, N-[(6-phenoxy-2-pyridyl)sulfonyl]-2-(2,2,4-trimethylpyrrolidin-1-yl)pyridine-3-carboxamide], the EC30 under setting [2] is < 3000 nM. On the same count and under the same terms, then `Cc1cc(O)ccc1-c1ccc(C(=O)NS(=O)(=O)c2cccnc2N)c(N2C[C@@H](C)CC2(C)C)n1` [Compound 1999, N-[(2-amino-3-pyridyl)sulfonyl]-6-(4-hydroxy-2-methyl-phenyl)-2-[(4S)-2,2,4-trimethylpyrrolidin-1-yl]pyridine-3-carboxamide], with 3000 to 10000 nM.

As to `CC(C)COc1cc(F)cc(-c2ccc(C(=O)NS(=O)(=O)c3cccc(N)n3)c(C3CC(C)(C)CC3(C)C)n2)c1` (single isomer, unassigned) [Compound 2374, N-[(6-amino-2-pyridyl)sulfonyl]-6-(3-fluoro-5-isobutoxy-phenyl)-2-(2,2,4,4-tetramethylcyclopentyl)pyridine-3-carboxamide], under setting [2], the EC30 was < 3000 nM. With `Cc1cc(C)c(Oc2nc(-c3ccc(F)cc3)ccc2C(=O)NS(=O)(=O)c2cccc(N)n2)c(C)c1` [Compound 93, N-[(6-amino-2-pyridyl)sulfonyl]-6-(4-fluorophenyl)-2-(2,4,6-trimethylphenoxy)pyridine-3-carboxamide], the EC30 result under setting [1] was “+++ (“+++” means <3 uM)”. With `CC1CN(c2nc(OC(C)C3CC3)c(F)cc2C(=O)NS(=O)(=O)c2cccc(N)n2)C(C)(C)C1` (centres unmarked) [Compound 2373, N-[(6-amino-2-pyridyl)sulfonyl]-6-(1-cyclopropylethoxy)-5-fluoro-2-(2,2,4-trimethylpyrrolidin-1-yl)pyridine-3-carboxamide], the EC30 under setting [2] was < 3000 nM.

With `CC1CN(c2ncccc2C(=O)NS(=O)(=O)c2cccc(Oc3ccc(OC(C)(C)C)cc3)n2)C(C)(C)C1` (centres unmarked) [Compound 2739], the concentration for an effect of 30% (EC30) under setting [2] was < 3000 nM. Still for that read-out and setting: with `Cc1ccnc(Nc2cccc(S(=O)(=O)NC(=O)c3cccnc3N3CC(C)CC3(C)C)n2)c1` (centres unmarked) [Compound 2082, N—[[6-[(4-methyl-2-pyridyl)amino]-2-pyridyl]sulfonyl]-2-(2,2,4-trimethylpyrrolidin-1-yl)pyridine-3-carboxamide] the figure was 3000 to 10000 nM. With `CC(C)Cc1ccc(C(=O)NS(=O)(=O)c2ccccc2)c(N2C[C@@H](C)CC2(C)C)n1` [Compound 2246, N-(benzenesulfonyl)-6-isobutyl-2-[(4S)-2,2,4-trimethylpyrrolidin-1-yl]pyridine-3-carboxamide], the 30% effect concentration (EC30) under setting [2] was < 3000 nM. Take `CC(C)CCOc1cc(F)cc(-c2ccc(C(=O)NS(=O)(=O)c3ccc[nH]c3=O)c(N3[C@H](C)CC[C@@H]3C)n2)c1` [Compound 688, 2-[(2S,5R)-2,5-dimethylpyrrolidin-1-yl]-6-(3-fluoro-5-isopentyloxy-phenyl)-N-[(2-oxo-1H-pyridin-3-yl)sulfonyl]pyridine-3-carboxamide]: under setting [1], the 30% effect concentration (EC30) entry is recorded as “+++ (“+++” means <3 uM)”. Still for that read-out and setting: then `Cn1ccc2cccc(Oc3nc(C(C)(C)C)ccc3C(=O)NS(=O)(=O)c3ccccc3)c21` [Compound 326, N-(benzenesulfonyl)-6-tert-butyl-2-(1-methylindol-7-yl)oxy-pyridine-3-carboxamide], with “+++ (“+++” means <3 uM)”. Regarding `COc1ccc(-c2ccc(C(=O)NS(=O)(=O)c3cccnc3N)c(N3C[C@@H](C)CC3(C)C)n2)c(F)c1F` [Compound 2302, N-[(2-amino-3-pyridyl)sulfonyl]-6-(2,3-difluoro-4-methoxy-phenyl)-2-[(4S)-2,2,4-trimethylpyrrolidin-1-yl]pyridine-3-carboxamide], the EC30 under setting [2] was < 3000 nM. In the case of `Cc1cc(C)c(Oc2nc(-c3ccc4c(c3)OCCO4)ccc2C(=O)NS(=O)(=O)c2cccc(N)n2)c(C)c1` [Compound 673, N-[(6-amino-2-pyridyl)sulfonyl]-6-(2,3-dihydro-1,4-benzodioxin-6-yl)-2-(2,4,6-trimethylphenoxy)pyridine-3-carboxamide], the 30% effect concentration (EC30) entry under setting [1] is given as “+++ (“+++” means <3 uM)”. On the same count and under the same terms, with `CC(C)Oc1ccc(-c2ccc(C(=O)NS(=O)(=O)c3cccc(N)n3)c(N3CCC(C)C(C)(C)C3)n2)cn1` (centres unmarked) [Compound 435, N-[(6-amino-2-pyridyl)sulfonyl]-6-(6-isopropoxy-3-pyridyl)-2-(3,3,4-trimethyl-1-piperidyl)pyridine-3-carboxamide] the entry was “+++ (“+++” means <3 uM)”. Take `CC1CN(c2ncccc2C(=O)NS(=O)(=O)c2cccc(OCCC3CCNCC3)n2)C(C)(C)C1` (centres unmarked) [Compound 2452, N—[[6-[2-(4-piperidyl)ethoxy]-2-pyridyl]sulfonyl]-2-(2,2,4-trimethylpyrrolidin-1-yl)pyridine-3-carboxamide]: under setting [2], the 30% effect concentration (EC30) is < 3000 nM. Regarding `COc1cc(C)c(-c2ccc(C(=O)NS(=O)(=O)c3ccc[nH]c3=O)c(N3C[C@@H](C)CC3(C)C)n2)c(C)c1` [Compound 2575, 6-(4-methoxy-2,6-dimethyl-phenyl)-N-[(2-oxo-1H-pyridin-3-yl)sulfonyl]-2-[(4S)-2,2,4-trimethylpyrrolidin-1-yl]pyridine-3-carboxamide], the concentration for an effect of 30% (EC30) under setting [2] is < 3000 nM.

These data come from patent US10758534B2 (Vertex Pharmaceuticals Incorporated, priority 2014, dated 2020).
